Assay results from PubChem BioAssay (NCI).
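Grown in 96-well plates, cells were treated for 48 hours with each compound at five concentrations. Insufficient inhibition: endpoint recorded as highest concentration tested. TGI is the concentration that stops growth completely.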

What was measured:
Test in all cases: DTP human tumour cell line panel, 48 h
HOP-92 NSCLC = system: HOP-92 NSCLC
TK-10 renal = system: TK-10 renal
SK-MEL-2 melanoma = system: SK-MEL-2 melanoma
SK-MEL-28 melanoma = system: SK-MEL-28 melanoma
SNB-75 CNS = system: SNB-75 CNS
UACC-62 melanoma = system: UACC-62 melanoma
OVCAR-5 ovarian = system: OVCAR-5 ovarian
SK-MEL-5 melanoma = system: SK-MEL-5 melanoma
MDA-N = system: MDA-N
HCT-15 colon = system: HCT-15 colon
NCI-H522 lung = system: NCI-H522 lung
T-47D breast = system: T-47D breast
UACC-257 melanoma = system: UACC-257 melanoma
786-0 renal = system: 786-0 renal
EKVX NSCLC = system: EKVX NSCLC
HT29 colon = system: HT29 colon
MOLT-4 leukemia = system: MOLT-4 leukemia
MDA-MB-231 breast = system: MDA-MB-231 breast
MDA-MB-435 = system: MDA-MB-435
UO-31 renal = system: UO-31 renal
IGROV1 ovarian = system: IGROV1 ovarian
K-562 leukemia = system: K-562 leukemia
CAKI-1 renal = system: CAKI-1 renal
NCI-H460 lung = system: NCI-H460 lung
PC-3 prostate = system: PC-3 prostate
SF-539 CNS = system: SF-539 CNS
SK-OV-3 ovarian = system: SK-OV-3 ovarian
NCI-H226 lung = system: NCI-H226 lung
SF-295 CNS = system: SF-295 CNS
HS 578T breast = system: HS 578T breast
SF-268 CNS = system: SF-268 CNS
NCI/ADR-RES ovarian = system: NCI/ADR-RES ovarian
KM12 colon = system: KM12 colon
COLO 205 colon = system: COLO 205 colon
SW-620 colon = system: SW-620 colon
NCI-H23 lung = system: NCI-H23 lung
A498 renal = system: A498 renal
HCT-116 colon = system: HCT-116 colon
DU-145 prostate = system: DU-145 prostate
A549 NSCLC = system: A549 NSCLC
HL-60(TB) leukemia = system: HL-60(TB) leukemia
HOP-62 NSCLC = system: HOP-62 NSCLC
SNB-19 CNS = system: SNB-19 CNS
LOX IMVI melanoma = system: LOX IMVI melanoma
BT-549 breast = system: BT-549 breast
OVCAR-8 ovarian = system: OVCAR-8 ovarian
CCRF-CEM leukemia = system: CCRF-CEM leukemia
RPMI-8226 leukemia = system: RPMI-8226 leukemia
RXF 393 renal = system: RXF 393 renal
MALME-3M melanoma = system: MALME-3M melanoma
SN12C renal = system: SN12C renal
ACHN renal = system: ACHN renal
U251 CNS = system: U251 CNS
OVCAR-3 ovarian = system: OVCAR-3 ovarian
M14 melanoma = system: M14 melanoma
HCC-2998 colon = system: HCC-2998 colon
SR leukemia = system: SR leukemia
OVCAR-4 ovarian = system: OVCAR-4 ovarian
MCF7 breast = system: MCF7 breast

Measured: TGI

COC(=O)CCCc1c(-c2[nH]c3ccccc3c2CCCC(=O)OC)[nH]c2ccccc12
not listed: HCC-2998 colon | SR leukemia | OVCAR-4 ovarian | MCF7 breast
> 100 µM: all other assays above

NNC1=N/C(=C\c2ccccc2O)C(=O)N1
51.9 µM: CCRF-CEM leukemia
49.6 µM: HL-60(TB) leukemia
77.3 µM: COLO 205 colon
89.4 µM: T-47D breast
not listed: HCC-2998 colon | SR leukemia | OVCAR-4 ovarian | MCF7 breast
> 100 µM: all other assays above

C/C=N\n1c(C)n[nH]c1=O
not listed: MDA-MB-231 breast | SK-OV-3 ovarian
> 100 µM: all other assays above

COc1ccc(-c2cc(-c3cc(F)c(Cl)cc3Cl)[nH]n2)cc1OC
42.1 µM: LOX IMVI melanoma
47.3 µM: SK-MEL-5 melanoma
43.8 µM: SR leukemia | RXF 393 renal
42.4 µM: 786-0 renal
52.5 µM: NCI-H226 lung
75.9 µM: CCRF-CEM leukemia
47 µM: COLO 205 colon
76.6 µM: HT29 colon
73.7 µM: SF-295 CNS
61.5 µM: SNB-75 CNS
55 µM: HL-60(TB) leukemia
37.3 µM: SF-539 CNS
41 µM: RPMI-8226 leukemia
30.4 µM: ACHN renal
41.3 µM: OVCAR-3 ovarian
62.9 µM: SN12C renal
74.2 µM: SW-620 colon
79.1 µM: PC-3 prostate
81.8 µM: NCI-H522 lung
67.8 µM: HOP-92 NSCLC
83.6 µM: HCT-116 colon
not listed: UACC-62 melanoma | A498 renal | HCC-2998 colon | MCF7 breast
> 100 µM: all other assays above

CC1(C)C(OC(=O)c2ccccc2)C[C@]23CCC[C@](C)(C[C@@H](O)C12)C3 (stereo not given in full)
28.6 µM: OVCAR-5 ovarian
36.8 µM: MDA-N | EKVX NSCLC
29 µM: UACC-62 melanoma
37.5 µM: NCI-H226 lung
35.8 µM: SK-MEL-2 melanoma
27.9 µM: SW-620 colon
33.6 µM: COLO 205 colon
37.1 µM: HCT-15 colon
34.8 µM: SNB-75 CNS
63.4 µM: HOP-62 NSCLC
91.6 µM: TK-10 renal
35.5 µM: UACC-257 melanoma
34 µM: NCI-H23 lung
40.8 µM: CAKI-1 renal
25.8 µM: SK-MEL-5 melanoma
38.5 µM: MALME-3M melanoma
> 100 µM: SR leukemia | SK-OV-3 ovarian | HL-60(TB) leukemia | RPMI-8226 leukemia
46.6 µM: OVCAR-4 ovarian
30.3 µM: BT-549 breast
38.9 µM: LOX IMVI melanoma | M14 melanoma
37.4 µM: CCRF-CEM leukemia
30.6 µM: MCF7 breast
46.7 µM: NCI/ADR-RES ovarian
35.6 µM: UO-31 renal
54.8 µM: K-562 leukemia
31.3 µM: NCI-H460 lung
35.7 µM: 786-0 renal
32.1 µM: KM12 colon
47.8 µM: SNB-19 CNS
31.4 µM: NCI-H522 lung | HT29 colon
32.5 µM: HOP-92 NSCLC
78.9 µM: OVCAR-3 ovarian
34.6 µM: SN12C renal
28.1 µM: PC-3 prostate | SF-295 CNS
29.1 µM: HCT-116 colon
32.2 µM: MDA-MB-435
52.4 µM: DU-145 prostate
43.7 µM: T-47D breast
36.2 µM: OVCAR-8 ovarian
31.9 µM: ACHN renal
59.5 µM: SF-268 CNS
29.8 µM: SK-MEL-28 melanoma
34.1 µM: A549 NSCLC
33.7 µM: MOLT-4 leukemia
40.4 µM: HS 578T breast
36.3 µM: IGROV1 ovarian
